ChEMBL document CHEMBL1201862, “PubChem BioAssay data set” (2004)
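Each compound was tested at five concentrations against cells in 96-well plates for 48 hours. Here, GI50 denotes the concentration required for 50% inhibition of growth.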 Calls of active or inactive are those of the source. Rule as the data show it: active = GI50 up to about 1.1 µM and inactive = higher.

What was measured:
Assay in all cases: DTP human tumour cell line panel, 48 h
[1] = tested on: 786-0
[2] = tested on: A498
[3] = tested on: COLO 205
[4] = tested on: EKVX
[5] = tested on: HT-29
[6] = tested on: IGROV-1
[7] = tested on: MDA-N
[8] = tested on: Malme-3M
[9] = tested on: NCI-H522
[10] = tested on: OVCAR-3
[11] = tested on: OVCAR-4
[12] = tested on: OVCAR-5
[13] = tested on: RPMI-8226
[14] = tested on: SF-295
[15] = tested on: SK-MEL-5
[16] = tested on: SNB-75
[17] = tested on: SR
[18] = tested on: SW-620
[19] = tested on: T47D
[20] = tested on: UACC-257

NP(=O)(OCC1=CC(=O)c2ccccc2C1=O)N(CCBr)CCBr (stereo not given)
GI50 [1]: 5.82 µM (inactive)
GI50 [2]: 20.8 µM (inactive)
GI50 [3]: 2.2 µM (inactive)
GI50 [4]: 15.3 µM (inactive)
GI50 [5]: 11.1 µM (inactive)
GI50 [6]: 12.6 µM (inactive)
GI50 [7]: 1.65 µM (inactive)
GI50 [8]: 0.979 µM (active)
GI50 [9]: 2.31 µM (inactive)
GI50 [10]: 3.02 µM (inactive)
GI50 [11]: 16.4 µM (inactive)
GI50 [12]: 22.3 µM (inactive)
GI50 [13]: 11.6 µM (inactive)
GI50 [14]: 8.81 µM (inactive)
GI50 [15]: 1.31 µM (inactive)
GI50 [16]: 7.26 µM (inactive)
GI50 [17]: 0.399 µM (active)
GI50 [18]: 2.32 µM (inactive)
GI50 [19]: 3.48 µM (inactive)
GI50 [20]: 1.87 µM (inactive)

O=C1c2ccccc2-c2c1c1ccccc1c(=O)n2CCO
GI50 [1]: 6.03 µM (inactive)
GI50 [2]: 35 µM (inactive)
GI50 [3]: 4.9 µM (inactive)
GI50 [4]: 10 µM (inactive)
GI50 [5]: 7.14 µM (inactive)
GI50 [6]: 20.5 µM (inactive)
GI50 [7]: 51.8 µM (inactive)
GI50 [8]: 26.5 µM (inactive)
GI50 [9]: 24 µM (inactive)
GI50 [10]: 74 µM (inactive)
GI50 [11]: 33.2 µM (inactive)
GI50 [12]: > 100 µM (inactive)
GI50 [13]: > 26.9 µM (inactive)
GI50 [14]: 11.8 µM (inactive)
GI50 [15]: 8.81 µM (inactive)
GI50 [16]: 25.4 µM (inactive)
GI50 [17]: 2.24 µM (inactive)
GI50 [18]: 7.29 µM (inactive)
GI50 [19]: 23.6 µM (inactive)
GI50 [20]: > 79.6 µM (inactive)

COc1ccc2c(c1)CCc1c(-c3noc4c3CCc3cc(OC)ccc3-4)noc1-2
GI50 [1]: > 100 µM (inactive)
GI50 [2]: > 100 µM (inactive)
GI50 [3]: > 100 µM (inactive)
GI50 [4]: 53.1 µM (inactive)
GI50 [5]: > 100 µM (inactive)
GI50 [6]: > 100 µM (inactive)
GI50 [7]: > 100 µM (inactive)
GI50 [8]: > 100 µM (inactive)
GI50 [9]: > 100 µM (inactive)
GI50 [10]: > 100 µM (inactive)
GI50 [11]: > 100 µM (inactive)
GI50 [12]: > 100 µM (inactive)
GI50 [13]: > 100 µM (inactive)
GI50 [14]: > 100 µM (inactive)
GI50 [15]: > 100 µM (inactive)
GI50 [16]: > 100 µM (inactive)
GI50 [17]: > 100 µM (inactive)
GI50 [18]: > 100 µM (inactive)
GI50 [19]: > 100 µM (inactive)
GI50 [20]: > 100 µM (inactive)

Cc1ccc(S(=O)(=O)O)cc1.c1cc2c(c(NC3=NCCN3)c1)CCCC2
GI50 [1]: > 100 µM (inactive)
GI50 [2]: > 100 µM (inactive)
GI50 [3]: > 100 µM (inactive)
GI50 [4]: > 100 µM (inactive)
GI50 [5]: 99.5 µM (inactive)
GI50 [6]: > 100 µM (inactive)
GI50 [7]: > 100 µM (inactive)
GI50 [8]: > 100 µM (inactive)
GI50 [9]: > 100 µM (inactive)
GI50 [10]: > 100 µM (inactive)
GI50 [11]: > 100 µM (inactive)
GI50 [12]: > 100 µM (inactive)
GI50 [13]: > 100 µM (inactive)
GI50 [14]: > 100 µM (inactive)
GI50 [15]: > 100 µM (inactive)
GI50 [16]: 89.3 µM (inactive)
GI50 [17]: > 100 µM (inactive)
GI50 [18]: 56.2 µM (inactive)
GI50 [19]: > 100 µM (inactive)
GI50 [20]: > 100 µM (inactive)

Cc1ccc([N+](=O)[O-])cc1S(=O)(=O)Nc1ccc(C2=NN(C(=O)c3ccccc3)C(c3cccs3)C2)cc1 (stereo not given)
GI50 [1]: 17.9 µM (inactive)
GI50 [2]: 10.5 µM (inactive)
GI50 [3]: 16.9 µM (inactive)
GI50 [4]: 21.5 µM (inactive)
GI50 [5]: 26.3 µM (inactive)
GI50 [6]: 16.9 µM (inactive)
GI50 [7]: 23.8 µM (inactive)
GI50 [8]: 19.1 µM (inactive)
GI50 [9]: 12.9 µM (inactive)
GI50 [10]: 13 µM (inactive)
GI50 [11]: 25.6 µM (inactive)
GI50 [12]: 42.5 µM (inactive)
GI50 [13]: 31.6 µM (inactive)
GI50 [14]: 21 µM (inactive)
GI50 [15]: 13.6 µM (inactive)
GI50 [16]: 20.2 µM (inactive)
GI50 [17]: 28.8 µM (inactive)
GI50 [18]: 45.5 µM (inactive)
GI50 [19]: 9.42 µM (inactive)
GI50 [20]: 21.5 µM (inactive)

CN(C)CCC(C(=O)C(C)(C)C)c1ccccn1 (stereo not given)
GI50 [1]: > 100 µM (inactive)
GI50 [2]: > 100 µM (inactive)
GI50 [3]: > 100 µM (inactive)
GI50 [4]: > 100 µM (inactive)
GI50 [5]: > 100 µM (inactive)
GI50 [6]: > 100 µM (inactive)
GI50 [7]: > 100 µM (inactive)
GI50 [8]: > 100 µM (inactive)
GI50 [9]: > 100 µM (inactive)
GI50 [10]: < 0.01 µM (active)
GI50 [11]: > 100 µM (inactive)
GI50 [12]: > 100 µM (inactive)
GI50 [13]: > 100 µM (inactive)
GI50 [14]: > 100 µM (inactive)
GI50 [15]: > 100 µM (inactive)
GI50 [16]: > 100 µM (inactive)
GI50 [17]: > 100 µM (inactive)
GI50 [18]: > 100 µM (inactive)
GI50 [19]: > 100 µM (inactive)
GI50 [20]: > 100 µM (inactive)

Cc1cc(=O)oc2c(C3=NN(C=O)C(c4ccccc4)C3)c(O)ccc12 (stereo not given)
GI50 [1]: 26.1 µM (inactive)
GI50 [2]: > 56.2 µM (inactive)
GI50 [3]: > 71.8 µM (inactive)
GI50 [4]: 72.6 µM (inactive)
GI50 [5]: > 80.7 µM (inactive)
GI50 [6]: 70 µM (inactive)
GI50 [7]: > 54.8 µM (inactive)
GI50 [8]: > 71.9 µM (inactive)
GI50 [9]: 54 µM (inactive)
GI50 [10]: > 71.3 µM (inactive)
GI50 [11]: > 64.1 µM (inactive)
GI50 [12]: > 87.7 µM (inactive)
GI50 [13]: > 79.3 µM (inactive)
GI50 [14]: 10 µM (inactive)
GI50 [15]: 56.2 µM (inactive)
GI50 [16]: 3.22 µM (inactive)
GI50 [17]: 60.1 µM (inactive)
GI50 [18]: > 100 µM (inactive)
GI50 [19]: > 100 µM (inactive)
GI50 [20]: 83.4 µM (inactive)

CC(=O)OC1C(C)OC(OC(=O)C2CCC3C(C2)OC2(CC(OC(=O)/C=C/c4ccccc4)C(C)CO2)C32CO2)C(OC2OC(C)C(O)C(OC(C)=O)C2O)C1O (stereo not given)
GI50 [1]: < 0.01 µM (active)
GI50 [2]: 0.0205 µM (active)
GI50 [3]: < 0.01 µM (active)
GI50 [4]: < 0.01 µM (active)
GI50 [5]: < 0.01 µM (active)
GI50 [6]: < 0.01 µM (active)
GI50 [7]: < 0.01 µM (active)
GI50 [8]: < 0.01 µM (active)
GI50 [9]: < 0.01 µM (active)
GI50 [10]: < 0.01 µM (active)
GI50 [11]: < 0.01 µM (active)
GI50 [12]: < 0.01 µM (active)
GI50 [13]: < 0.01 µM (active)
GI50 [14]: < 0.01 µM (active)
GI50 [15]: < 0.01 µM (active)
GI50 [16]: < 0.01 µM (active)
GI50 [17]: < 0.01 µM (active)
GI50 [18]: < 0.01 µM (active)
GI50 [19]: < 0.01 µM (active)
GI50 [20]: < 0.01 µM (active)

COc1ccccc1NC1Oc2cc3c(cc2C(c2cc(OC)c(OC)c(OC)c2)C1C)OCO3 (stereo not given)
GI50 [1]: 3.5 µM (inactive)
GI50 [2]: 4.9 µM (inactive)
GI50 [3]: 1.95 µM (inactive)
GI50 [4]: > 26.1 µM (inactive)
GI50 [5]: 2.11 µM (inactive)
GI50 [6]: 3.24 µM (inactive)
GI50 [7]: 0.358 µM (active)
GI50 [8]: 0.383 µM (active)
GI50 [9]: 1.45 µM (inactive)
GI50 [10]: 1.52 µM (inactive)
GI50 [11]: 6.37 µM (inactive)
GI50 [12]: 6.64 µM (inactive)
GI50 [13]: 1.93 µM (inactive)
GI50 [14]: 0.689 µM (active)
GI50 [15]: 0.769 µM (active)
GI50 [16]: 0.951 µM (active)
GI50 [17]: 1.03 µM (active)
GI50 [18]: 1.19 µM (inactive)
GI50 [19]: 5.86 µM (inactive)
GI50 [20]: 8.17 µM (inactive)

O=C1/C(=N/CCc2cc(Br)c(O)c(Br)c2)C=C(O)c2cccnc21
GI50 [1]: 2.22 µM (inactive)
GI50 [2]: 3.08 µM (inactive)
GI50 [3]: 1.75 µM (inactive)
GI50 [4]: 8.47 µM (inactive)
GI50 [5]: 2.6 µM (inactive)
GI50 [6]: 2.07 µM (inactive)
GI50 [7]: 0.4 µM (active)
GI50 [8]: 1.21 µM (inactive)
GI50 [9]: 1.74 µM (inactive)
GI50 [10]: 1.59 µM (inactive)
GI50 [11]: 2.72 µM (inactive)
GI50 [12]: 2.03 µM (inactive)
GI50 [13]: 2.82 µM (inactive)
GI50 [14]: 1.2 µM (inactive)
GI50 [15]: 1.24 µM (inactive)
GI50 [16]: 1.13 µM (inactive)
GI50 [17]: 0.771 µM (active)
GI50 [18]: 2.17 µM (inactive)
GI50 [19]: 7.78 µM (inactive)
GI50 [20]: 1.37 µM (inactive)
